Test results as given in US8906925B2, “Pyrido[4,3-B]indoles containing rigid moieties” (Medivation Technologies, Inc., priority 2008, dated 2014).
Like-named read-outs stand apart in the source and are kept apart here.

Tests used:
[1] = target: T1, human recombinant serotonin (5-Hydroxytryptamine) 5-HT2A receptor (Homo sapiens, UniProt P28223); assay: Serotonin 5-HT2A radioligand binding ([3H]Ketanserin); conditions: for inhibition at 0.1 µM: read-out: Inhibition of ligand binding, Serotonin 5-HT2A (percent inhibition of specific binding), compound at 0.1 μM; for inhibition at 1 µM: read-out: Inhibition of ligand binding, Serotonin 5-HT2A (percent inhibition of specific binding), compound at 1 μM
T1 construct: expressed in transfected cells; host or cells: Chinese hamster ovary (CHO-K1) cells
T1 sequence (P28223 whole entry): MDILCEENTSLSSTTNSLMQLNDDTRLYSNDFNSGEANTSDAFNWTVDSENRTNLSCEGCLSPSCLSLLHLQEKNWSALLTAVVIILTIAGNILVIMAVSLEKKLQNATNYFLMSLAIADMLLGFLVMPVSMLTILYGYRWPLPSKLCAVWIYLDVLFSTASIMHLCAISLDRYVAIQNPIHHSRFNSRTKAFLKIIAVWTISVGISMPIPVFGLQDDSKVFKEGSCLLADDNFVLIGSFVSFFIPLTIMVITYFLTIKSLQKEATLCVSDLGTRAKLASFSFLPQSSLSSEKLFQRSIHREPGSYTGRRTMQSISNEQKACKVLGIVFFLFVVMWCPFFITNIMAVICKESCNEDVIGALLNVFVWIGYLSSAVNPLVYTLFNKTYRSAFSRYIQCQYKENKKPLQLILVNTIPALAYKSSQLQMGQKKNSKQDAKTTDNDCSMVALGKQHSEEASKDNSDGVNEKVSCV
Description: Compounds of the invention were incubated with 0.5 nM [^3H]Ketanserin for 60 min. at 25° C. Non-specific binding was estimated in the presence of 1 μM Mianserin. Receptor proteins were filtered and washed, the filters were then counted to determine [^3H]Ketanserin specifically bound.

[2] = target: T2, human recombinant serotonin (5-Hydroxytryptamine) 5-HT2C receptor (Homo sapiens, UniProt P28335); assay: Serotonin 5-HT2C radioligand binding ([3H]Mesulergine); conditions: for inhibition at 0.1 µM: compound at 0.1 μM; for inhibition at 0.1 µM / inhibition at 1 µM: read-out: Inhibition of ligand binding, Serotonin 5-HT2C (percent inhibition of specific binding)
T2 construct: expressed in transfected cells; host or cells: Chinese hamster ovary (CHO-K1) cells
T2 sequence (P28335 33-458): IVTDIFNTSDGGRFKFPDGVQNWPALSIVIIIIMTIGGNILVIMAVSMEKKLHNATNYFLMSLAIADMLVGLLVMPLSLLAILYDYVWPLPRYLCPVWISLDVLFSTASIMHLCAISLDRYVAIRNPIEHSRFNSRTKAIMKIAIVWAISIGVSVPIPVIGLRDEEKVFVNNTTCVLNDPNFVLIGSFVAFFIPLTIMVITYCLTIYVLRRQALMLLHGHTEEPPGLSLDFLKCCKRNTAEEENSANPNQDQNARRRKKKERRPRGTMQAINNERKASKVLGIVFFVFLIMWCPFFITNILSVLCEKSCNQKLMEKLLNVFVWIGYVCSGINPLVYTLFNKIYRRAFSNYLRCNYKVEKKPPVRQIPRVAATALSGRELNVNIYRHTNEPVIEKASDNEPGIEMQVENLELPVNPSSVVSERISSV
Outline: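 Compounds tested at 1 μM or lower (1% DMSO vehicle) for displacement of 1 nM [3H]Mesulergine over 60 min at 25° C. Specific binding determined by filtration counting, with 1 μM Mianserin defining non-specific binding; values are percent inhibition.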

[3] = target: human dopamine D2L receptor (Homo sapiens, UniProt P14416); assay: Dopamine D2L radioligand binding ([3H]Spiperone); conditions: compound at 1 μM
Chain of human dopamine D2L receptor (P14416 whole entry): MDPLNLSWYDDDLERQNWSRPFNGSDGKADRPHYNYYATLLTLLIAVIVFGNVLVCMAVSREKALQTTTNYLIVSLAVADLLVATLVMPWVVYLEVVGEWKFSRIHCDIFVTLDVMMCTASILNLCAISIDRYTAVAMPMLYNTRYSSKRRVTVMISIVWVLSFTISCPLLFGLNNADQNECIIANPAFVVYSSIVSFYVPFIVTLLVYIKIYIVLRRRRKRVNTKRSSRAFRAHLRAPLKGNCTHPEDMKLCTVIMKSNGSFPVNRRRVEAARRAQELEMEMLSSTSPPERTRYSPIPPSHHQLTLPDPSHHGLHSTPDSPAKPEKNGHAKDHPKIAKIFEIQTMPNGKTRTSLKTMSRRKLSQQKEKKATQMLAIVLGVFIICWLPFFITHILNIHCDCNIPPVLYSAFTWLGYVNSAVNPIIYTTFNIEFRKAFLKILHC
From the text: Non-specific binding was estimated in the presence of […] Haloperidol. Receptor proteins were filtered and washed, the filters were then counted to determine [^3H]Spiperone specifically bound. […] Biochemical assay results are presented as the percent inhibition of specific binding in Table 9.

[4] = target: T3, human recombinant serotonin (5-Hydroxytryptamine) 5-HT6 receptor (Homo sapiens, UniProt P50406); assay: Serotonin 5-HT6 radioligand binding ([3H]LSD); conditions: read-out: Inhibition of ligand binding, Serotonin 5-HT6 (percent inhibition of specific binding); for inhibition at 0.1 µM: compound at 0.1 μM; for inhibition at 1 µM: compound at 1 μM
T3 construct: expressed in transfected cells; host or cells: human HeLa cells
T3 sequence (P50406 whole entry): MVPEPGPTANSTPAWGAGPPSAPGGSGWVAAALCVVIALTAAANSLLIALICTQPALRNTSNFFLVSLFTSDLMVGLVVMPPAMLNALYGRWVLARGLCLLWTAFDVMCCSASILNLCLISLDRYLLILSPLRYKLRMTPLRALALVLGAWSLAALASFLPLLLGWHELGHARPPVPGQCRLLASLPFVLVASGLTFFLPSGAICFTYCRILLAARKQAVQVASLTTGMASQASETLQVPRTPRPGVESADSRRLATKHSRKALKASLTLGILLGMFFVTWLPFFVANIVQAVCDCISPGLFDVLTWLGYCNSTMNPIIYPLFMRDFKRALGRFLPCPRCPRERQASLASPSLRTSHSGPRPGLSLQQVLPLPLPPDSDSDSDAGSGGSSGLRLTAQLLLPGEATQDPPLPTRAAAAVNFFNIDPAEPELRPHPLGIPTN
Description: Compounds of the invention were incubated with 1.5 nM [3H]Lysergic acid diethylamide (LSD) for 120 min. at 37° C. […] Receptor proteins were filtered and washed, the filters were then counted to determine [3H]LSD specifically bound. Compounds were screened at 1 μM or lower, using 1% DMSO as vehicle. Biochemical assay results are presented as the percent inhibition of specific binding in Table 10.

[5] = target: human recombinant serotonin (5-Hydroxytryptamine) 5-HT7 receptor (Homo sapiens, UniProt P34969); assay: Serotonin 5-HT7 radioligand binding ([3H]LSD); conditions: for inhibition at 0.1 µM: compound at 0.1 μM; for inhibition at 0.1 µM / inhibition at 1 µM: read-out: Inhibition of ligand binding, Serotonin 5-HT7 (percent inhibition of specific binding)
Chain of human recombinant serotonin (5-Hydroxytryptamine) 5-HT7 receptor (P34969 whole entry): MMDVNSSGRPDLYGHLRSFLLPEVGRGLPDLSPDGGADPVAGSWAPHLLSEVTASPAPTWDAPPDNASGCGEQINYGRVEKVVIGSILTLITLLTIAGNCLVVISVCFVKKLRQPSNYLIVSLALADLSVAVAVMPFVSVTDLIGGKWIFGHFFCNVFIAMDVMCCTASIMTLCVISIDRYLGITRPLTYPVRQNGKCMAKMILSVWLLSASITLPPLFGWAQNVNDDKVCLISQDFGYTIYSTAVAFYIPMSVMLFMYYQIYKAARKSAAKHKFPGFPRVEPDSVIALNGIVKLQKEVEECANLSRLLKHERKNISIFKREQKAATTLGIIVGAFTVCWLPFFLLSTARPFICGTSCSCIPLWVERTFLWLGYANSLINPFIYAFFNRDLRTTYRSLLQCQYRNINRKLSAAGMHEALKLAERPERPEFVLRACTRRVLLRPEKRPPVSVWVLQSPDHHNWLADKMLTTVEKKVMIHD
From the text: Receptor proteins were filtered and washed, the filters were then counted to determine [^3H]LSD specifically bound.

[6] = target: T4, human recombinant histamine H2 receptor (Homo sapiens, UniProt P25021); assay: Histamine H2 radioligand binding ([125I]Aminopotentidine); conditions: read-out: Histamine Binding (1 μM) H2, percent inhibition of specific binding, 1 μM
T4 construct: expressed in transfected cells; host or cells: Chinese hamster ovary (CHO) K1 cells
T4 sequence (P25021 whole entry): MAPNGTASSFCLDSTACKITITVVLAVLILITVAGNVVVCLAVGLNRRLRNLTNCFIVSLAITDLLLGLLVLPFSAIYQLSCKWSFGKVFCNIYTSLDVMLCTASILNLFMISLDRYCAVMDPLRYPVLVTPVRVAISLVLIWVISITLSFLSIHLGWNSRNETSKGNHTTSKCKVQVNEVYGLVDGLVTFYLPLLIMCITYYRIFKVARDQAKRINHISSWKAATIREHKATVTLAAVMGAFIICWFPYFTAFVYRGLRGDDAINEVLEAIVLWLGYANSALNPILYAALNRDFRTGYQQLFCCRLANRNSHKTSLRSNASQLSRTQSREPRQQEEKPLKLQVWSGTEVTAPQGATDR
Outline: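 Receptor source: human recombinant H2 in CHO-K1 cells, assayed in 50 mM phosphate pH 7.4. Competition against 0.1 nM [125I]aminopotentidine, 120 min, 25 °C; 3 μM tiotidine sets nonspecific binding, filter-bound counts give specific binding.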

[7] = target: T5, human recombinant serotonin 5-HT1B receptor (Homo sapiens, UniProt P28222); assay: 5-HT1B radioligand binding competition assay ([3H]5-CT, CHO-K1 membranes); conditions: 5 μM, in duplicate, average
T5 construct: expressed in transfected cells; host or cells: CHO-K1 cell line, membrane extracts
T5 sequence (P28222 whole entry): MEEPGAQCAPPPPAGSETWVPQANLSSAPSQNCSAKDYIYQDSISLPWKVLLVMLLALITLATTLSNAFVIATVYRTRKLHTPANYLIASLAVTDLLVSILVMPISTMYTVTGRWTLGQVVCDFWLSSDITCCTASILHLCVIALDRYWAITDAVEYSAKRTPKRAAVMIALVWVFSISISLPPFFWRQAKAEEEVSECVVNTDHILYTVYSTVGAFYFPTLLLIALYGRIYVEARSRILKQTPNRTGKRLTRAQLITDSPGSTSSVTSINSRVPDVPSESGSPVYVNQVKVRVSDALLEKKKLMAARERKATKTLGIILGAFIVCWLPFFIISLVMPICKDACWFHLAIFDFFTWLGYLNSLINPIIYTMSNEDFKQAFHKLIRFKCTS
Description: To determine the binding activity at the human recombinant serotonin 5-HT1B receptor of compounds of the invention, CHO-K1 cell line expressing the human 5-HT1B recombinant receptor was amplified to prepare membranes used for the radioligand binding assay throughout the study. Radioligand binding competition on 5-HT1B was performed by adding successively in the wells of a 96 well plate (Master Block, Greiner, 786201). […] The plate was incubated 60 min at 25° C. in a water bath and then filtered over GF/B filters (Perkin Elmer, 6005177, presoaked in 0.5% PE1 for 2 h at room temperature) with a Filtration unit (Perkin Elmer). The filters were washed 3× with 0.5 mL of ice-cold washing buffer (50 mM Tris pH 7.4). 50 μL Microscint 20 (Packard) was added and the plate was incubated 15 min on an orbital shaker and then counted with a TopCount™ for 1 min/well.
The reference value thus obtained for the test was compared to a historical value obtained from the same receptor and used to validate the experimental session. […] For replicate determinations, the maximum variability tolerated in the test was of +/−20% around the average of the replicates.
Compounds were tested for binding activity in the radioligand binding competition assay on human 5-HT1B receptor, at one concentration […], in duplicate. Dose-response data from test compounds were analyzed with XLfit (IDBS) software using nonlinear regression applied to a sigmoidal dose-response model.
Dose-response data was analyzed with XLfit (IDBS) software using non-linear regression applied to a sigmoidal dose-response model.

histamine receptor H1 = histamine receptor H1 (Homo sapiens, UniProt P35367); assay: Histamine H1 radioligand binding ([3H]Pyrilamine); conditions: read-out: Histamine Binding (1 μM) H1, percent inhibition of specific binding, 1 μM
Chain of histamine receptor H1 (P35367 whole entry): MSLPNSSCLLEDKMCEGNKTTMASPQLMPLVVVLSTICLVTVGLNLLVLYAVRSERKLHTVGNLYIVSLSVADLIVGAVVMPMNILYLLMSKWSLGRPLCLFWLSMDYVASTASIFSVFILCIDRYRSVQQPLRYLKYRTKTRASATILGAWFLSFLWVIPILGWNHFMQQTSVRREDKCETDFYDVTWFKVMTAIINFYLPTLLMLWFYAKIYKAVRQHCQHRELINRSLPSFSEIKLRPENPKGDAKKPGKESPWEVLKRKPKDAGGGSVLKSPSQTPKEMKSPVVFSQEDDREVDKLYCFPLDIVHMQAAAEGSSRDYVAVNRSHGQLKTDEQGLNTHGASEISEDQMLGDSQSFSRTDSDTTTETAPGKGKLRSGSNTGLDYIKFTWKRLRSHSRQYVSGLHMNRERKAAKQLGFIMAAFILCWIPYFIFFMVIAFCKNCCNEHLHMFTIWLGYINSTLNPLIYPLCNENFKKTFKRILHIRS
Outline: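 Values are percent inhibition of specific [3H]pyrilamine (1.2 nM) binding with compounds at ≤1 μM (1% DMSO vehicle); 180 min incubation at 25 °C, pH 7.4 Tris buffer, on CHO-expressed human H1 receptor; 1 μM pyrilamine defined nonspecific binding, bound ligand counted after filtration.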

[8] = percent inhibition of specific binding, read-out: Inhibition of ligand binding, Dopamine D2L
[9] = […] [3H]Spiperone, read-out: Inhibition of ligand binding, Dopamine D2L (percent inhibition of specific binding)

Structure (SMILES): C/C(=C\n1c2c(c3ccccc31)CN(C)CC2)c1ccncc1 [Compound 217, (E)-2-methyl-5-(2-(pyridin-4-yl)prop-1-enyl)-2,3,4,5-tetrahydro-1H-pyrido[4,3-b]indole]
- inhibition at 0.1 µM [1]: 96%
- inhibition at 1 µM [1]: 98%
- inhibition at 0.1 µM [2]: 62%
- Inhibition of ligand binding, Serotonin 5-HT2C (percent inhibition of specific binding) ([2]; compound at 1 μM, 1 µM): 92%
- inhibition at 1 µM ([2]; compound at 1 μM): 87%
- Inhibition of ligand binding, Dopamine D2L ([3]; percent inhibition of specific binding, 1 µM): 88%
- inhibition at 1 µM [3, 8]: 86%
- inhibition at 0.1 µM [4]: 97%
- inhibition at 1 µM [4]: 102%
- inhibition at 0.1 µM [5]: 58%
- Inhibition of ligand binding, Serotonin 5-HT7 (percent inhibition of specific binding) ([5]; compound at 1 μM, 1 µM): 91%
- inhibition at 1 µM ([5]; compound at 1 μM): 73%
- inhibition at 1 µM [6]: 50%
- 5-HT1B (5 μM) % Binding relative to bound radioligand [7]: 10%

Structure (SMILES): C/C(=C/n1c2c(c3cc(C)ccc31)CN(C)CC2)c1ccc(Cl)c(Cl)c1 [Compound 247, (Z)-5-(2-(3,4-dichlorophenyl)prop-1-enyl)-2,8-dimethyl-2,3,4,5-tetrahydro-1H-pyrido[4,3-b]indole]
- inhibition at 1 µM [1]: 101%
- inhibition at 1 µM (histamine receptor H1): 75%
- inhibition at 1 µM ([2]; compound at 1 μM): 100%
- inhibition at 1 µM [3, 8]: 28%
- inhibition at 1 µM [4]: 103%
- inhibition at 1 µM ([5]; compound at 1 μM): 101%
- inhibition at 1 µM [6]: 99%

Structure (SMILES): C/C(=C\n1c2c(c3cc(C)ccc31)CN(C)C(C)C2)c1ccc(C)nc1 (centres unmarked) [Compound 259, (E)-2,3,8-trimethyl-5-(2-(6-methylpyridin-3-yl)prop-1-enyl)-2,3,4,5-tetrahydro-1H-pyrido[4,3-b]indole]
- inhibition at 0.1 µM [1]: 96%
- inhibition at 1 µM (histamine receptor H1): 10%
- inhibition at 0.1 µM [2]: 92%
- inhibition at 1 µM [3, 8]: -12%
- inhibition at 0.1 µM [4]: 21%
- inhibition at 0.1 µM [5]: 81%
- 5-HT1B (5 μM) % Binding relative to bound radioligand [7]: 25%

Structure (SMILES): C/C(=C/n1c2c(c3cc(C)ccc31)CN(C)CC2)c1ccc(F)cc1F [Compound 274, (Z)-5-(2-(2,4-difluorophenyl)prop-1-enyl)-2,8-dimethyl-2,3,4,5-tetrahydro-1H-pyrido[4,3-b]indole]
- inhibition at 0.1 µM [1]: 98%
- inhibition at 1 µM (histamine receptor H1): 72%
- inhibition at 0.1 µM [2]: 99%
- inhibition at 1 µM [3, 8]: 56%
- inhibition at 0.1 µM [4]: 97%
- inhibition at 0.1 µM [5]: 94%
- 5-HT1B (5 μM) % Binding relative to bound radioligand [7]: 6%

Structure (SMILES): C=C(Cn1c2c(c3cccc(F)c31)CN(C)CC2)c1ccc(F)cc1 [Compound No. 353, 6-fluoro-5-(2-(4-fluorophenyl)allyl)-2-methyl-2,3,4,5-tetrahydro-1H-pyrido[4,3-b]indole]
- inhibition at 1 µM [1]: 98%
- inhibition at 1 µM (histamine receptor H1): 100%
- inhibition at 1 µM ([2]; compound at 1 μM): 97%
- inhibition at 1 µM [3, 9]: 92%
- inhibition at 1 µM [4]: 100%
- inhibition at 1 µM ([5]; compound at 1 μM): 87%
- inhibition at 1 µM [6]: 93%

Structure (SMILES): C=C(Cn1c2c(c3cccc(Cl)c31)CN(C)CC2)c1ccc(F)cc1 [Compound No. 354, 6-chloro-5-(2-(4-fluorophenyl)allyl)-2-methyl-2,3,4,5-tetrahydro-1H-pyrido[4,3-b]indole]
- inhibition at 1 µM [1]: 100%
- inhibition at 1 µM (histamine receptor H1): 86%
- inhibition at 1 µM ([2]; compound at 1 μM): 101%
- inhibition at 1 µM [3, 9]: 98%
- inhibition at 1 µM [4]: 103%
- inhibition at 1 µM ([5]; compound at 1 μM): 75%
- inhibition at 1 µM [6]: 97%

Structure (SMILES): C=C(Cn1c2c(c3cc(C)ccc31)CN(C)CC2)c1ccc(O)cc1 [Compound No. 355, 4-(3-(2,8-dimethyl-3,4-dihydro-1H-pyrido[4,3-b]indol-5(2H)-yl)prop-1-en-2-yl)phenol]
- inhibition at 1 µM [1]: 92%
- inhibition at 1 µM (histamine receptor H1): 116%
- inhibition at 1 µM ([2]; compound at 1 μM): 99%
- inhibition at 1 µM [3, 9]: 81%
- inhibition at 1 µM [4]: 101%
- inhibition at 1 µM ([5]; compound at 1 μM): 92%
- inhibition at 1 µM [6]: 93%

Structure (SMILES): C=C(Cn1c2c(c3cc(OC)ccc31)CN(C)CC2)c1ccncc1 [Compound No. 356, 8-methoxy-2-methyl-5-(2-(pyridin-4-yl)allyl)-2,3,4,5-tetrahydro-1H-pyrido[4,3-b]indole]
- inhibition at 1 µM [1]: 81%
- inhibition at 1 µM (histamine receptor H1): 70%
- inhibition at 1 µM ([2]; compound at 1 μM): 83%
- inhibition at 1 µM [3, 9]: 37%
- inhibition at 1 µM [4]: 90%
- inhibition at 1 µM ([5]; compound at 1 μM): 60%
- inhibition at 1 µM [6]: 17%

Structure (SMILES): C/C=C(\Cn1c2c(c3cc(C)ccc31)CN(C)CC2)c1ccncc1 [Compound No. 359, (Z)-2,8-dimethyl-5-(2-(pyridin-4-yl)but-2-enyl)-2,3,4,5-tetrahydro-1H-pyrido[4,3-b]indole]
- inhibition at 1 µM (histamine receptor H1): 38%
- inhibition at 1 µM [3, 9]: 27%
- 5-HT1B (5 μM) % Binding relative to bound radioligand [7]: 68%

Structure (SMILES): Cc1ccc(C#Cn2c3c(c4cc(Cl)ccc42)CN(C)CC3)cn1 [Compound No. 484, 8-chloro-2-methyl-5-((6-methylpyridin-3-yl)ethynyl)-2,3,4,5-tetrahydro-1H-pyrido[4,3-b]indole]
- inhibition at 1 µM [1]: 98%
- inhibition at 1 µM (histamine receptor H1): 6%
- inhibition at 1 µM ([2]; compound at 1 μM): 95%
- inhibition at 1 µM [3, 9]: -4%
- inhibition at 1 µM [4]: 34%
- inhibition at 1 µM ([5]; compound at 1 μM): 83%
- inhibition at 1 µM [6]: 77%

Structure (SMILES): COc1ccc(C#Cn2c3c(c4cc(C)ccc42)CN(C)CC3)cc1F [Compound No. 485, 5-((3-fluoro-4-methoxyphenyl)ethynyl)-2,8-dimethyl-2,3,4,5-tetrahydro-1H-pyrido[4,3-b]indole]
- inhibition at 1 µM [1]: 96%
- inhibition at 1 µM (histamine receptor H1): -6%
- inhibition at 1 µM ([2]; compound at 1 μM): 102%
- inhibition at 1 µM [3, 9]: 14%
- inhibition at 1 µM [4]: 89%
- inhibition at 1 µM ([5]; compound at 1 μM): 77%
- inhibition at 1 µM [6]: 97%
